Measured values reported in paper PMC6757289, “Design and Characterization of SGK3-PROTAC1, an Isoform Specific SGK3 Kinase PROTAC Degrader” (ACS Chemical Biology, 2019).
Read-outs that look alike come from different tables or passages of the source.

Key:
Test in all cases: kinase profiling panel
Type in all cases: biochemical
IKK beta = target: T1, IKK beta (Homo sapiens, UniProt O14920); conditions: read-out: % Activity Remaining
T1 sequence (O14920 1-756): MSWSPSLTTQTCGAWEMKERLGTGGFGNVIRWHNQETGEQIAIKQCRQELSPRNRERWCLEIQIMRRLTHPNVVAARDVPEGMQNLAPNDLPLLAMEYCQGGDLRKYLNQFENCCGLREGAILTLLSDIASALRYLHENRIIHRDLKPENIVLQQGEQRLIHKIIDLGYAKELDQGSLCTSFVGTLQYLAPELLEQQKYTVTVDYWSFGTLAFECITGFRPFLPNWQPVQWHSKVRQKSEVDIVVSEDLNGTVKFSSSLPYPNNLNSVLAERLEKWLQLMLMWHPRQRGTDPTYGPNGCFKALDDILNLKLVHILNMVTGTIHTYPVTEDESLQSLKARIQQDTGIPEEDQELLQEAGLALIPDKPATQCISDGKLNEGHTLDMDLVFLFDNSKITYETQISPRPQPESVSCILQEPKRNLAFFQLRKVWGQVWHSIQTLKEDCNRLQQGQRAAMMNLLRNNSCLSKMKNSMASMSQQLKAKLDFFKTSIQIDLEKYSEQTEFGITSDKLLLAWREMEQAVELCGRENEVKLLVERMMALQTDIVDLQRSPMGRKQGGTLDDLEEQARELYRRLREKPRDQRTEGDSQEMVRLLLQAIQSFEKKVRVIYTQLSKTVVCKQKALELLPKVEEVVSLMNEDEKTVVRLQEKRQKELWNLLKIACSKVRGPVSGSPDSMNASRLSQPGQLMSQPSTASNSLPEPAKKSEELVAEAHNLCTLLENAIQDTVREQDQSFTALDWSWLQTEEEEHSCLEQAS
Source text: (§1) Protein kinase profiling against a Dundee panel of 140 protein kinases was undertaken at the International Centre for Protein Kinase Profiling. The result for each kinase was presented as a mean kinase activity of the reaction taken in triplicate relative to a control sample treated with DMSO. Assay conditions and abbreviations are available at http://www.kinase-screen.mrc.ac.uk.

IKK epsilon = target: T2, IKK epsilon (Homo sapiens, UniProt Q14164); conditions: read-out: % Activity Remaining
T2 sequence (Q14164 1-716): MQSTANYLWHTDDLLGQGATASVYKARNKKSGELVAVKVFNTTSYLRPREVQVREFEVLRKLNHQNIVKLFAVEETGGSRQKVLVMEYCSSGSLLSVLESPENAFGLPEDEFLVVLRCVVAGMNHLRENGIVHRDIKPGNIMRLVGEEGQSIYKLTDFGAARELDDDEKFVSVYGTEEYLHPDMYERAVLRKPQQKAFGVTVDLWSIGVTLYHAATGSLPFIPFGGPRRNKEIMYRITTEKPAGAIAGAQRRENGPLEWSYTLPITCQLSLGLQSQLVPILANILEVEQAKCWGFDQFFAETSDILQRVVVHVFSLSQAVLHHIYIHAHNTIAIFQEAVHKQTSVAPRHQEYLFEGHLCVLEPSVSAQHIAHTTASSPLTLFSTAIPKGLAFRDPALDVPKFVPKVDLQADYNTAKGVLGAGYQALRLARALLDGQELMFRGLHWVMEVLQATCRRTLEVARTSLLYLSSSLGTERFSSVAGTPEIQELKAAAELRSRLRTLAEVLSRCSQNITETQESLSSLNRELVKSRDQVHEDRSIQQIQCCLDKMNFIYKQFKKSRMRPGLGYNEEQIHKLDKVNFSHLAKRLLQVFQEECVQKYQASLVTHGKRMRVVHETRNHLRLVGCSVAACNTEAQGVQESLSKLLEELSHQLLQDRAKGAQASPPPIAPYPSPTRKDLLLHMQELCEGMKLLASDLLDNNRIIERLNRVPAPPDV
Source text: as §1

MKK6 = target: T3, MKK6 (Homo sapiens, UniProt P52564); conditions: read-out: % Activity Remaining
T3 sequence (P52564 1-334): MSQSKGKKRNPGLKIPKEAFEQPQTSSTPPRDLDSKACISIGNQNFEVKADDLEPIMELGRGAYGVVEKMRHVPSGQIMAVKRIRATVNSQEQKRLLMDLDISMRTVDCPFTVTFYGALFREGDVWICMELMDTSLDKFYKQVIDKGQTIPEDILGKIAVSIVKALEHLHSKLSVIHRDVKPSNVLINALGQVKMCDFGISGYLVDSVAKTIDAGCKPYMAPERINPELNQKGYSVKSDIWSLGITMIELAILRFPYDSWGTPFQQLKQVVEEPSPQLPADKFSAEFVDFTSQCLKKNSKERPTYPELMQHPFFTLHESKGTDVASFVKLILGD
Source text: as §1

MNK1 = MNK1 (Homo sapiens, UniProt Q9BUB5); conditions: read-out: % Activity Remaining
Chain of MNK1 (Q9BUB5 whole entry): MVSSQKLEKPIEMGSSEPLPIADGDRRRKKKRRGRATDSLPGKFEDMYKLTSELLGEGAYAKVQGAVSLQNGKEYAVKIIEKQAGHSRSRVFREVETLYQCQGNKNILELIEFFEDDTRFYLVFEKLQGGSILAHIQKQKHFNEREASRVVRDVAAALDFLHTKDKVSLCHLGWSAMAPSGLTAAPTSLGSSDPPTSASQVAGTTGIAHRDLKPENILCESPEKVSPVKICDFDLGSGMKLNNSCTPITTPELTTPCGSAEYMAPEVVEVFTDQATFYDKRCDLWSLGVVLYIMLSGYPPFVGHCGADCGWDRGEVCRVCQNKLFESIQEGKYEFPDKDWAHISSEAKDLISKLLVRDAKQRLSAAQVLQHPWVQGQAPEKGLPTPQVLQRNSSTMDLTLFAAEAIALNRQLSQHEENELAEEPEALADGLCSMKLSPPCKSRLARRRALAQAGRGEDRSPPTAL
Source text: as §1

PAK4 = PAK4 (Homo sapiens, UniProt O96013); conditions: read-out: % Activity Remaining
Chain of PAK4 (O96013 whole entry): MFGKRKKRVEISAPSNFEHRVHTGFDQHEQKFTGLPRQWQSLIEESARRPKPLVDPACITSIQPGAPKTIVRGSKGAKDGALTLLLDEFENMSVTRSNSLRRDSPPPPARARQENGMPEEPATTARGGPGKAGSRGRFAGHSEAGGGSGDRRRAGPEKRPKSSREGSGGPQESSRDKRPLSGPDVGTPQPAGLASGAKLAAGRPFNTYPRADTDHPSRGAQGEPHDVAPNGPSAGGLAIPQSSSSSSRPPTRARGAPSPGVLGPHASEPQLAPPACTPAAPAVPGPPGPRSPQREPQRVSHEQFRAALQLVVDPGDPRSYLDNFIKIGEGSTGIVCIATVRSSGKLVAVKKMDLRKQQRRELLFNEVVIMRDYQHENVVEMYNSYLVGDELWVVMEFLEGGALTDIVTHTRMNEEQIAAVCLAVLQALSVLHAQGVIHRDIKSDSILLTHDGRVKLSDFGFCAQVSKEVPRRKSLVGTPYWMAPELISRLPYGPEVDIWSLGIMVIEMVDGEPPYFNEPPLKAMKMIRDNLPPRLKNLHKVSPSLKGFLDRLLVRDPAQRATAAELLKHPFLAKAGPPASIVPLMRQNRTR
Source text: as §1

PHK = conditions: 1 µM
Source text: as §1

TTK = target: T4, TTK (Homo sapiens, UniProt P33981); conditions: read-out: % Activity Remaining
T4 sequence (P33981 1-857): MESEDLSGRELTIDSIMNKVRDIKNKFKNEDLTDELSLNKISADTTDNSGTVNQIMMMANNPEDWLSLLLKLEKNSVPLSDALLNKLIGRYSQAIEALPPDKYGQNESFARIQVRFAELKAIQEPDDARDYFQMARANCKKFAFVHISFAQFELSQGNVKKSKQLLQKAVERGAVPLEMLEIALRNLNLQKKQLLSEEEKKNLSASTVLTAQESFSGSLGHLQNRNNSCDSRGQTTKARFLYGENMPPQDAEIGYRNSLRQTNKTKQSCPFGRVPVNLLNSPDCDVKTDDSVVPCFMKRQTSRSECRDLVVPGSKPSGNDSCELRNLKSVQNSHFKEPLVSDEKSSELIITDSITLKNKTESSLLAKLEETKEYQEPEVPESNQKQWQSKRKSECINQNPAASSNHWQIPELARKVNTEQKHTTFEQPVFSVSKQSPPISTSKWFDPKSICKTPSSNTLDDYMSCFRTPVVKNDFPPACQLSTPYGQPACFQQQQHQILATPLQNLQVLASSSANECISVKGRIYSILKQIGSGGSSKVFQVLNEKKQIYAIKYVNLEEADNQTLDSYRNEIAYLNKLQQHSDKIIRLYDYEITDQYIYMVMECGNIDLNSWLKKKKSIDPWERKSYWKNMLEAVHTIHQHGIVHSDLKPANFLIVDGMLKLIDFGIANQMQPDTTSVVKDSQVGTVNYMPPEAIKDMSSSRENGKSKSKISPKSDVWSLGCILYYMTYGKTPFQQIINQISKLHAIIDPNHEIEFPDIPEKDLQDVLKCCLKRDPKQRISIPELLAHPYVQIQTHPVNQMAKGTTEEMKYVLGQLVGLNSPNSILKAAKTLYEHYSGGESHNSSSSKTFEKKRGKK
Source text: as §1

Structure (SMILES) | remaining activity at 1 µM (IKK beta) [%] | remaining activity at 1 µM (IKK epsilon) [%] | remaining activity at 1 µM (MKK6) [%] | remaining activity at 1 µM (MNK1) [%] | remaining activity at 1 µM (PAK4) [%] | % Activity Remaining (PHK) [%] | remaining activity at 1 µM (TTK) [%] | remaining activity at 1 µM (IKK beta; 1 µM) [%] | remaining activity at 1 µM (IKK epsilon; 1 µM) [%] | remaining activity at 1 µM (MKK6; 1 µM) [%] | remaining activity at 1 µM (MNK1; 1 µM) [%] | remaining activity at 1 µM (PAK4; 1 µM) [%] | remaining activity at 1 µM (TTK; 1 µM) [%]
COc1ccc(Cl)c(S(=O)(=O)Nc2ccc(-c3nc(OC[C@H]4CNCCO4)c4c(C)n[nH]c4n3)cc2)c1 [290-R, reference compound] | 102 | 34 | 102 | 87 | 91 | 97 | 76 |  |  |  |  |  | 
Cc1ccc(F)c(S(=O)(=O)Nc2ccc(-c3nc(OC[C@H]4CNCCO4)c4cn[nH]c4n3)cc2)c1 [308-R, reference compound] | 67 | 26 | 66 | 77 | 102 | 83 | 91 |  |  |  |  |  | 
Cc1ccc(F)c(S(=O)(=O)Nc2ccc(-c3nc(OC[C@H]4CN(CCCCCCOCCOCCOCC(=O)N[C@H](C(=O)N5C[C@H](O)C[C@H]5C(=O)NCc5ccc(-c6scnc6C)cc5)C(C)(C)C)CCO4)c4cn[nH]c4n3)cc2)c1 [SGK3-PROTAC1] |  |  |  |  |  | 113 |  | 100 | 108 | 123 | 108 | 81 | 89
Cc1ccc(F)c(S(=O)(=O)Nc2ccc(-c3nc(OC[C@H]4CN(CCCCCCOCCOCCOCC(=O)N[C@H](C(=O)N5C[C@@H](O)C[C@H]5C(=O)NCc5ccc(-c6scnc6C)cc5)C(C)(C)C)CCO4)c4cn[nH]c4n3)cc2)c1 [cisSGK3-PROTAC1] |  |  |  |  |  | 122 |  | 101 | 99 | 108 | 103 | 113 | 99
